Several values for one entry are separate records, joined by “and”; a condition that tells them apart may be missing. Equal entries are not always repeated.
Test: molar heat capacity at constant pressure
Conditions: 101.33 kPa, relaxation calorimetry - Quantum Design PPMS

O=P([O-])([O-])OP(=O)([O-])[O-].O=P([O-])([O-])OP(=O)([O-])[O-].O=P([O-])([O-])OP(=O)([O-])[O-].[Fe+3].[Fe+3].[Fe+3].[Fe+3] [iron(III) diphosphate]
molar heat capacity at constant pressure
Conditions | Crystal 2 | Crystal 3
1 K | – | 0.08105 J/K/mol
1.909 K | – | 0.1843 J/K/mol
2 K | – | 0.2057 J/K/mol
2.045 K | – | 0.2088 J/K/mol
2.21 K | – | 0.2418 J/K/mol
2.506 K | – | 0.3014 J/K/mol
2.763 K | – | 0.3632 J/K/mol
3 K | – | 0.4233 J/K/mol
3.058 K | – | 0.4449 J/K/mol
3.392 K | – | 0.553 J/K/mol
3.803 K | – | 0.7103 J/K/mol
4 K | – | 0.8002 J/K/mol
4.207 K | – | 0.9081 J/K/mol
4.685 K | – | 1.188 J/K/mol
5 K | – | 1.41 J/K/mol
5.203 K | – | 1.56 J/K/mol
5.797 K | – | 2.097 J/K/mol
6 K | – | 2.314 J/K/mol
6.489 K | – | 2.871 J/K/mol
7 K | – | 3.559 J/K/mol
7.172 K | – | 3.81 J/K/mol
7.975 K | – | 5.084 J/K/mol
8 K | – | 5.127 J/K/mol
8.875 K | – | 6.71 J/K/mol
9 K | – | 6.952 J/K/mol
10 K | – | 9.006 J/K/mol
10.03 K | – | 9.074 J/K/mol
11 K | – | 11.23 J/K/mol
11.16 K | – | 11.61 J/K/mol
12 K | – | 13.56 J/K/mol
12.39 K | – | 14.49 J/K/mol
13 K | – | 15.98 J/K/mol
13.77 K | – | 17.87 J/K/mol
14 K | – | 18.43 J/K/mol
15 K | – | 20.84 J/K/mol
15.31 K | – | 21.61 J/K/mol
16 K | – | 23.37 J/K/mol
17 K | – | 26.01 J/K/mol and 26.02 J/K/mol
18 K | – | 28.75 J/K/mol
18.85 K | – | 31.22 J/K/mol
19 K | – | 31.74 J/K/mol and 31.7 J/K/mol
19.52 K | – | 33.09 J/K/mol
20 K | – | 34.42 J/K/mol
20.61 K | – | 36.2 J/K/mol
20.9 K | – | 37.11 J/K/mol
21.09 K | – | 37.43 J/K/mol
21.6 K | – | 38.93 J/K/mol
21.81 K | – | 39.43 J/K/mol
22.11 K | – | 40.45 J/K/mol
22.85 K | – | 42.81 J/K/mol
23.25 K | – | 44.02 J/K/mol
23.87 K | – | 46 J/K/mol
23.89 K | – | 46.12 J/K/mol
24.08 K | – | 46.85 J/K/mol
24.28 K | – | 47.45 J/K/mol
24.47 K | – | 48.12 J/K/mol
24.67 K | – | 48.81 J/K/mol
24.88 K | – | 49.5 J/K/mol
25 K | – | 49.88 J/K/mol
25.08 K | – | 50.12 J/K/mol
25.28 K | – | 50.75 J/K/mol
25.47 K | – | 51.26 J/K/mol
25.67 K | – | 51.84 J/K/mol
25.81 K | – | 52.19 J/K/mol
25.87 K | – | 52.46 J/K/mol
26.07 K | – | 53.07 J/K/mol
26.27 K | – | 53.83 J/K/mol
26.48 K | – | 54.56 J/K/mol
26.69 K | – | 55.35 J/K/mol
26.9 K | – | 56.09 J/K/mol
27.11 K | – | 56.75 J/K/mol
27.3 K | 57.27 J/K/mol | 57.27 J/K/mol
27.32 K | 57.27 J/K/mol | –
27.52 K | 56.92 J/K/mol | –
27.7 K | 56.9 J/K/mol | –
27.91 K | 56.91 J/K/mol | –
28.04 K | 57.08 J/K/mol | –
28.11 K | 57.21 J/K/mol | –
28.31 K | 57.58 J/K/mol | –
28.53 K | 58.14 J/K/mol | –
28.63 K | 58.29 J/K/mol | –
28.71 K | 58.58 J/K/mol | –
28.91 K | 59.09 J/K/mol | –
28.99 K | 59.36 J/K/mol | –
29.12 K | 59.63 J/K/mol | –
29.32 K | 60.15 J/K/mol | –
29.52 K | 60.68 J/K/mol | –
30 K | 62 J/K/mol | –
30.01 K | 62.04 J/K/mol | –
30.53 K | 63.41 J/K/mol | –
31.05 K | 65.12 J/K/mol | –
31.57 K | 66.61 J/K/mol | –
31.8 K | 67.25 J/K/mol | –
32.07 K | 68.15 J/K/mol | –
32.58 K | 69.63 J/K/mol | –
33.05 K | 71.25 J/K/mol | –
33.6 K | 73.01 J/K/mol | –
34.1 K | 74.7 J/K/mol | –
34.61 K | 76.5 J/K/mol | –
35 K | 77.84 J/K/mol | –
35.09 K | 78.15 J/K/mol | –
35.33 K | 78.91 J/K/mol | –
35.63 K | 80.11 J/K/mol | –
36.09 K | 81.71 J/K/mol | –
36.62 K | 83.72 J/K/mol | –
37.1 K | 85.44 J/K/mol | –
37.66 K | 87.47 J/K/mol | –
38.15 K | 89.5 J/K/mol | –
38.62 K | 91.24 J/K/mol | –
39.17 K | 93.41 J/K/mol | –
39.24 K | 93.52 J/K/mol | –
39.64 K | 95.31 J/K/mol | –
40 K | 96.72 J/K/mol | –
40.17 K | 97.41 J/K/mol | –
40.66 K | 99.59 J/K/mol | –
41.19 K | 101.8 J/K/mol | –
41.66 K | 103.8 J/K/mol | –
42.22 K | 106.31 J/K/mol | –
42.39 K | 107.06 J/K/mol | –
42.6 K | 108.05 J/K/mol | –
42.8 K | 108.92 J/K/mol | –
43 K | 109.89 J/K/mol | –
43.2 K | 110.79 J/K/mol | –
43.41 K | 111.83 J/K/mol | –
43.59 K | 112.41 J/K/mol | –
43.6 K | 112.72 J/K/mol | –
43.8 K | 113.72 J/K/mol | –
44.01 K | 114.89 J/K/mol | –
44.2 K | 115.83 J/K/mol | –
44.41 K | 116.9 J/K/mol | –
44.61 K | 118.08 J/K/mol | –
44.81 K | 119.19 J/K/mol | –
45 K | 120.36 J/K/mol | –
45.02 K | 120.42 J/K/mol | –
45.22 K | 121.8 J/K/mol | –
